Results published in article PMC3639963, “A New Class of Small Molecule Inhibitor of BMP Signaling” (PLoS ONE, 2013).

How the values were obtained:
Assay in all cases: DSF thermal shift
Type in all cases: binding
Settings in all cases: 10 µM inhibitor; read-out: Tm shift
AMPKα2 = target: T1, AMPKα2 (Homo sapiens, UniProt P54646)
T1 construct: purchased Nanosyn (enzymatic panel); SGC in-house recombinant human kinases (DSF panel); Invitrogen (ALK1-6)
Experimental: (§1) Thermal melting experiments were performed using a Real Time PCR machine Mx3005p (Stratagene) with a protein concentration of 1–2 µM and 10 µM inhibitor as described previously, [25]. […] Recombinant human kinases for DSF screening were prepared by SGC using published methods, [36].

ActRIIA = target: T2, ActRIIA (Homo sapiens, UniProt P27037)
T2 construct: purchased Nanosyn (enzymatic panel); SGC in-house recombinant human kinases (DSF panel); Invitrogen (ALK1-6)
Experimental: as §1

CLK4 = target: T3, CLK4 (Homo sapiens, UniProt Q9HAZ1)
T3 construct: purchased Nanosyn (enzymatic panel); SGC in-house recombinant human kinases (DSF panel); Invitrogen (ALK1-6)
Experimental: as §1

FES = target: T4, FES (Homo sapiens, UniProt P07332)
T4 construct: purchased Nanosyn (enzymatic panel); SGC in-house recombinant human kinases (DSF panel); Invitrogen (ALK1-6)
Experimental: as §1

JNK1 = target: T5, JNK1 (Homo sapiens, UniProt P45983)
T5 construct: purchased Nanosyn (enzymatic panel); SGC in-house recombinant human kinases (DSF panel); Invitrogen (ALK1-6)
Experimental: as §1

MEK2 = target: T6, MEK2 (Homo sapiens, UniProt P36507)
T6 construct: purchased Nanosyn (enzymatic panel); SGC in-house recombinant human kinases (DSF panel); Invitrogen (ALK1-6)
Experimental: as §1

NEK1 = target: T7, NEK1 (Homo sapiens, UniProt Q96PY6)
T7 construct: purchased Nanosyn (enzymatic panel); SGC in-house recombinant human kinases (DSF panel); Invitrogen (ALK1-6)
T7 sequence (Q96PY6 1-1258): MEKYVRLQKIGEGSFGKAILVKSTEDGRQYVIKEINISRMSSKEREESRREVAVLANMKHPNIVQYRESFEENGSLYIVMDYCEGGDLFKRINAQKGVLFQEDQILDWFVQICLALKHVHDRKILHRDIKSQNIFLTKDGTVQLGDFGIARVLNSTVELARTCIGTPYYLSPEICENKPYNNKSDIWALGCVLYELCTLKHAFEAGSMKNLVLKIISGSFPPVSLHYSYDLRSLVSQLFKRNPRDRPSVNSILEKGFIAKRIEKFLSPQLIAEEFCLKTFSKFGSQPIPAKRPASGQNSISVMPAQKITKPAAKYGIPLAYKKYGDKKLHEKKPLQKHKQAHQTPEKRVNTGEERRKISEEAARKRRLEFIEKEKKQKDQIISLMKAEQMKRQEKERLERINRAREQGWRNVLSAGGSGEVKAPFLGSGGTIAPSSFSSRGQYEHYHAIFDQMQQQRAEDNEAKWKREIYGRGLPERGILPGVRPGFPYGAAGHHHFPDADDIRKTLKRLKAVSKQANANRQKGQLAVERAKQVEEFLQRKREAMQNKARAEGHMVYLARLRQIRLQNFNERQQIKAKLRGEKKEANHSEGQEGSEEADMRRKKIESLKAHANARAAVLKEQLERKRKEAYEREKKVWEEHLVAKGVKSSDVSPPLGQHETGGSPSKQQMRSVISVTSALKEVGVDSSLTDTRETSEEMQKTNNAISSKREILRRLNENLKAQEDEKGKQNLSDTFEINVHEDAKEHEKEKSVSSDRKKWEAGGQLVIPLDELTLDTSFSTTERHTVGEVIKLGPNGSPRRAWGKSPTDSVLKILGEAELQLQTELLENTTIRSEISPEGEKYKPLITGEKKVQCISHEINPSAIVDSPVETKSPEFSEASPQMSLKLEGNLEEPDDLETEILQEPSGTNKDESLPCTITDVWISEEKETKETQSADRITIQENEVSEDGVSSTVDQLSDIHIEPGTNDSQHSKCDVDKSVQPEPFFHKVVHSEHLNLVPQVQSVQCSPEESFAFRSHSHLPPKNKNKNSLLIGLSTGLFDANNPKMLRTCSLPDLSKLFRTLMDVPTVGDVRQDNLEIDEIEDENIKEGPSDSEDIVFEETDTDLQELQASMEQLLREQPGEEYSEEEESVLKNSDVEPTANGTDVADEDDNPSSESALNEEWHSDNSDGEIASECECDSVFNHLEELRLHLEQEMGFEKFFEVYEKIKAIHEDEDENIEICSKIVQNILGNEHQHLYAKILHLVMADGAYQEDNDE
Experimental: as §1

NEK11 = target: T8, NEK11 (Homo sapiens, UniProt Q8NG66)
T8 construct: purchased Nanosyn (enzymatic panel); SGC in-house recombinant human kinases (DSF panel); Invitrogen (ALK1-6)
T8 sequence (Q8NG66 1-645): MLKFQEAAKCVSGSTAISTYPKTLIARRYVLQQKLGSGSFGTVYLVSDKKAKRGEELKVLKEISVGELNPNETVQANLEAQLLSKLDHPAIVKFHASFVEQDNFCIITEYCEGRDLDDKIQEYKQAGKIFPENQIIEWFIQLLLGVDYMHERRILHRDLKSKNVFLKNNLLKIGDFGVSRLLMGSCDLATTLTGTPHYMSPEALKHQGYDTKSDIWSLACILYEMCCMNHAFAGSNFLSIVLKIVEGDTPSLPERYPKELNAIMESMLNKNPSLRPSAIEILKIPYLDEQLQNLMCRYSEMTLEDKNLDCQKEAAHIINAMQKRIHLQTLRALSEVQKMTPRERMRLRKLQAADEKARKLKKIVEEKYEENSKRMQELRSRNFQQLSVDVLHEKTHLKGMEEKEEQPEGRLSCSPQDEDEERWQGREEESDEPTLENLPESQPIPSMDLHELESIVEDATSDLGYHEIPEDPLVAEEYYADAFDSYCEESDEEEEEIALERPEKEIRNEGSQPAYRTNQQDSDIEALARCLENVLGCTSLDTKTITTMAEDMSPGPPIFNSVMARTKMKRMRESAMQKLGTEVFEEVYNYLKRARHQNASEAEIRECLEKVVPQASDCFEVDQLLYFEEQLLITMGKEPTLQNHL
Experimental: as §1

OSR1 = target: T9, OSR1 (Homo sapiens, UniProt O95747)
T9 construct: purchased Nanosyn (enzymatic panel); SGC in-house recombinant human kinases (DSF panel); Invitrogen (ALK1-6)
Experimental: as §1

PKN1 = target: T10, PKN1 (Homo sapiens, UniProt Q16512)
T10 construct: purchased Nanosyn (enzymatic panel); SGC in-house recombinant human kinases (DSF panel); Invitrogen (ALK1-6)
Experimental: as §1

p38δ = target: T11, p38δ (Homo sapiens, UniProt O15264)
T11 construct: purchased Nanosyn (enzymatic panel); SGC in-house recombinant human kinases (DSF panel); Invitrogen (ALK1-6)
T11 sequence (O15264 1-365): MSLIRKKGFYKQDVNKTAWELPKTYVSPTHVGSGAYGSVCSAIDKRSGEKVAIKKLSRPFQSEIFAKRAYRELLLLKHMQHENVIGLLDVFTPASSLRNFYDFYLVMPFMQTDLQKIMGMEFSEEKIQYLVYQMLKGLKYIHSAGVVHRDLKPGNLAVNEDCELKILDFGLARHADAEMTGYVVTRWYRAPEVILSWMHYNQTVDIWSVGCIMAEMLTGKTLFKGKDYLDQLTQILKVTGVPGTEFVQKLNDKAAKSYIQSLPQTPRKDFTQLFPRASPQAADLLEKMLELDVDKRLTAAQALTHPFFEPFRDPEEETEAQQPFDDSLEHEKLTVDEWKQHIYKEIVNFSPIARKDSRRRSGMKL
Experimental: as §1

T9 sequence (O95747 whole entry): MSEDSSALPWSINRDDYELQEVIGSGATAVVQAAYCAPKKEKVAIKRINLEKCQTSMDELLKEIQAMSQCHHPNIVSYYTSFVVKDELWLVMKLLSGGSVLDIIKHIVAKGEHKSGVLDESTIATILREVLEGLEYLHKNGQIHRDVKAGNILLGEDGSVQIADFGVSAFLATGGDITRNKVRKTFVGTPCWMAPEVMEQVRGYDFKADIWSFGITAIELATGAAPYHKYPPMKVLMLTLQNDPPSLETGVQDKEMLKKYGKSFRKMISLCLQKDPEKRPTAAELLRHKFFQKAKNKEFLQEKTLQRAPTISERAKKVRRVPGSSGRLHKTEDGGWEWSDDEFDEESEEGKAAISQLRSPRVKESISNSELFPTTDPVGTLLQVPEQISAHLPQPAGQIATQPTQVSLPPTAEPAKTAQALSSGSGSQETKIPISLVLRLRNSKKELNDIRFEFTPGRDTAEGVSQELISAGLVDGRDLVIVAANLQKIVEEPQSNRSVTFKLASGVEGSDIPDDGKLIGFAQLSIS
T4 sequence (P07332 whole entry): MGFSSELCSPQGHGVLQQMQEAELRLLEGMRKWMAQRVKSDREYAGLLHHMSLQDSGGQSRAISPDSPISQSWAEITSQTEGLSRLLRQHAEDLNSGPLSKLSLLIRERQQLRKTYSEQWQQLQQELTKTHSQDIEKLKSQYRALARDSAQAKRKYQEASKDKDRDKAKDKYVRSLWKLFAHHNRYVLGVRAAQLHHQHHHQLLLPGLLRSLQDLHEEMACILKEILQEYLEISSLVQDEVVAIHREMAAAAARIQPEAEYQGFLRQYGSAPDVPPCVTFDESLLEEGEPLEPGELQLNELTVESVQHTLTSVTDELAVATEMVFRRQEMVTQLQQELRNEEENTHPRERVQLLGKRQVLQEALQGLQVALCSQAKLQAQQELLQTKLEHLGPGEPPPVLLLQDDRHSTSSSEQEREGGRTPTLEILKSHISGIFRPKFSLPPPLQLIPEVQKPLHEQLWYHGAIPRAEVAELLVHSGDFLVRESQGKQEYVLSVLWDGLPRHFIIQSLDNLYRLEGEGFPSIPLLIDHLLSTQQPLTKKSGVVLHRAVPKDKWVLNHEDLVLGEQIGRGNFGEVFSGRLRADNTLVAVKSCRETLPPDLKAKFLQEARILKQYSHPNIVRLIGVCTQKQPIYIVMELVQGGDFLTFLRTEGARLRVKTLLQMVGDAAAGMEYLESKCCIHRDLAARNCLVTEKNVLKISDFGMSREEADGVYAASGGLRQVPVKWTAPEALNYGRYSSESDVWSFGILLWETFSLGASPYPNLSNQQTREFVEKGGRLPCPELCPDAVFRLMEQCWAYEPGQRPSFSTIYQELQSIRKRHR
T5 sequence (P45983 whole entry): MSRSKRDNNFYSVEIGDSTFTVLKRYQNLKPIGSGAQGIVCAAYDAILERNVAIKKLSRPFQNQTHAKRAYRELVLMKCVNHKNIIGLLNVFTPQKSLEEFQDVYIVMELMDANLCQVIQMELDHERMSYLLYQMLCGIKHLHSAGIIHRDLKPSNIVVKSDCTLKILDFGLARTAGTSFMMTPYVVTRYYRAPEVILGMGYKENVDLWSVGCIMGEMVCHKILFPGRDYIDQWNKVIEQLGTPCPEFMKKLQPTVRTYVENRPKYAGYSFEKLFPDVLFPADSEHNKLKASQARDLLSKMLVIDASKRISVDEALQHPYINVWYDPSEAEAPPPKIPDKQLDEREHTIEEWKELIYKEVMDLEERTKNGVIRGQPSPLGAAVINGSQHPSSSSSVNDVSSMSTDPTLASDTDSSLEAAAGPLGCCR
T2 sequence (P27037 20-513): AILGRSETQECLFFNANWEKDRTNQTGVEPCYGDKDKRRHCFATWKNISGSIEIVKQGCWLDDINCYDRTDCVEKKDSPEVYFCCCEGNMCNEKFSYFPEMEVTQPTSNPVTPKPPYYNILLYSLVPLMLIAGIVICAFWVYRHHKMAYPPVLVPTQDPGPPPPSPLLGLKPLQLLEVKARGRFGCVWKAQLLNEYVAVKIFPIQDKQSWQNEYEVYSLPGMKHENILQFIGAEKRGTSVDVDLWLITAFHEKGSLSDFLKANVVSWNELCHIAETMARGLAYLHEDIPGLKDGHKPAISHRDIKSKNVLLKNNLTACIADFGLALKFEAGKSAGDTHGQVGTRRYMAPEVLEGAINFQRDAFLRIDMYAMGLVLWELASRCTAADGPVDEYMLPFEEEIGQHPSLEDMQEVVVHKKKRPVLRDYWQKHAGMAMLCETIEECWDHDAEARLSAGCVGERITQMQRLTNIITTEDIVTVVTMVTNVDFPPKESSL
T10 sequence (Q16512 whole entry): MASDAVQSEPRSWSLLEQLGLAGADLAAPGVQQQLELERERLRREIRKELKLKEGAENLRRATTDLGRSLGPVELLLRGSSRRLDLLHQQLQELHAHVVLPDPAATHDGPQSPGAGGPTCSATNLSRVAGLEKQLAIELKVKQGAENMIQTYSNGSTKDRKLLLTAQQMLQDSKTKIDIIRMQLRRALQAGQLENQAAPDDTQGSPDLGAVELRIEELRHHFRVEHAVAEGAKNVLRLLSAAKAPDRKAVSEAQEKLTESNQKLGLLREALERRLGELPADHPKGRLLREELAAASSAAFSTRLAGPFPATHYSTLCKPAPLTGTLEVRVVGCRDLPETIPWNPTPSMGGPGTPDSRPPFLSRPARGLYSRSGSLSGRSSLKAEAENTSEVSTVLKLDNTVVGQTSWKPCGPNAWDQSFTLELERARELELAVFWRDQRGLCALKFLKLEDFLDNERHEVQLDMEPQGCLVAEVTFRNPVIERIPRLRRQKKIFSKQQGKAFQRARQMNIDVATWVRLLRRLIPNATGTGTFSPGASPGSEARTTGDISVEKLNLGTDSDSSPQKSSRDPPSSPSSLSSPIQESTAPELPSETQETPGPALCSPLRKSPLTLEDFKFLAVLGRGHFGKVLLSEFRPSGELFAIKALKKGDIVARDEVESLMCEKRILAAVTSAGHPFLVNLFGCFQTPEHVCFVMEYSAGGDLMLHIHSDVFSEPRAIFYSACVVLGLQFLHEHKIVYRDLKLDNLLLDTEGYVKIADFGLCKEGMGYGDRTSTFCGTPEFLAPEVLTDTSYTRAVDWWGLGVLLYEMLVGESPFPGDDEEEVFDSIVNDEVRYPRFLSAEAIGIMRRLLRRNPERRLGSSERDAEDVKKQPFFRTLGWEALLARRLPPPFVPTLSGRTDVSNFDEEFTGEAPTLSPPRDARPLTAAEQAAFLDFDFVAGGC
T3 sequence (Q9HAZ1 whole entry): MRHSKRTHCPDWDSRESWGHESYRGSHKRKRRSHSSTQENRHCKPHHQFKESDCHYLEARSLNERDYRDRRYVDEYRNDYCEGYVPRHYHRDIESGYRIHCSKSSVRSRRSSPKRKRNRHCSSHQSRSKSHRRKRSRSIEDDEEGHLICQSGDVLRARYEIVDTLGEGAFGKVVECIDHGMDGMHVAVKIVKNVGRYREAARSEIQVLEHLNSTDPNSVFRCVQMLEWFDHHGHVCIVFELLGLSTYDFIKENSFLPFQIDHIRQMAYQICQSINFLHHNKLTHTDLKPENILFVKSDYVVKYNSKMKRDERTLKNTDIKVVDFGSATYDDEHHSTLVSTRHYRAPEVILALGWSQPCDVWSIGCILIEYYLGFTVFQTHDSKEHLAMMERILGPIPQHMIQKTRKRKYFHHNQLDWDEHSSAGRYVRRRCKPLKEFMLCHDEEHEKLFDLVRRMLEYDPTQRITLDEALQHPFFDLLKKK
T1 sequence (P54646 whole entry): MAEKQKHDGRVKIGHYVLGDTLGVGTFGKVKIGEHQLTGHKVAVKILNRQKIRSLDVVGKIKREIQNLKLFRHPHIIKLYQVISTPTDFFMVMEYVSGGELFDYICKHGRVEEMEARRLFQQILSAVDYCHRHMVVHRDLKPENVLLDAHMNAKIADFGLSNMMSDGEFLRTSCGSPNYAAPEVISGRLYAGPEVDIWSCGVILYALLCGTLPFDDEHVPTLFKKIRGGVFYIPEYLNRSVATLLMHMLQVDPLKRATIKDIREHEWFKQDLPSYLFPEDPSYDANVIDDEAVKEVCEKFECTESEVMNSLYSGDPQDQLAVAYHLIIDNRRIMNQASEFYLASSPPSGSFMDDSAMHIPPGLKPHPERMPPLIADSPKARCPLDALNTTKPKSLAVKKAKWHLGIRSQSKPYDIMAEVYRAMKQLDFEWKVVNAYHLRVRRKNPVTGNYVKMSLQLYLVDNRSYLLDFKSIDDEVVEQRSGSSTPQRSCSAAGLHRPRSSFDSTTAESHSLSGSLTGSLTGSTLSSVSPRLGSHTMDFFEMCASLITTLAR
T6 sequence (P36507 whole entry): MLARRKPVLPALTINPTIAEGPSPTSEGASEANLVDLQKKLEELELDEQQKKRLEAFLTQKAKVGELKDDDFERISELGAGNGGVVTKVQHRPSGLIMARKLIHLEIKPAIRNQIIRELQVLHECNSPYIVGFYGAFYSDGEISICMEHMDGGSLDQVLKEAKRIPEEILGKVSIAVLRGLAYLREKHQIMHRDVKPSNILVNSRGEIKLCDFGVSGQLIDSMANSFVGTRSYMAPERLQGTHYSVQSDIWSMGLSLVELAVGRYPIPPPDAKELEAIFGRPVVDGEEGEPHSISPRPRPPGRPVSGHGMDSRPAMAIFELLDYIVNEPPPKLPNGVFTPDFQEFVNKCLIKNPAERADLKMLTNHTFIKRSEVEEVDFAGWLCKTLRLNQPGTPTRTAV

Row | SMILES | ΔTm at 10 µM (AMPKα2) [°C] | ΔTm at 10 µM (ActRIIA) [°C] | ΔTm at 10 µM (CLK4) [°C] | ΔTm at 10 µM (FES) [°C] | ΔTm at 10 µM (JNK1) [°C] | ΔTm at 10 µM (MEK2) [°C] | ΔTm at 10 µM (NEK1) [°C] | ΔTm at 10 µM (NEK11) [°C] | ΔTm at 10 µM (OSR1) [°C] | ΔTm at 10 µM (PKN1) [°C] | ΔTm at 10 µM (p38δ) [°C]
1 | c1cc(-c2cnn3cc(-c4ccc(OCCN5CCCCC5)cc4)cnc23)ccn1 [Dorsomorphin] | 7.1 | 6.1 | 8.7 | 0.5 | 0 | -0.1 | 0.1 | 2 | 1.6 | 2.3 | 0
2 | COc1cc(-c2cc(-c3cccc(O)c3)cnc2N)cc(OC)c1OC [K02288, 3-[6-amino-5-(3,4,5-trimethoxy-phenyl)-pyridin-3-yl]-phenol] | 1.2 | 8.3 | 0.3 | 0.4 | 0.2 | 2.4 | 0.2 | 0.3 | 0 | 0.5 | -0.2
3 | c1ccc2c(-c3cnn4cc(-c5ccc(N6CCNCC6)cc5)cnc34)ccnc2c1 [LDN-193189] | 8.3 | 8.6 | 5.3 | 0.4 | 0.5 | 2.1 | 0.2 | -0.3 | 0.9 | 2.3 | -0.4
